Experimental data from ChEMBL document CHEMBL4229439, “Design, synthesis and antimycobacterial activity of 3,5-dinitrobenzamide derivatives containing fused ring moieties” (2018).
In brackets after ≈: the same amount, converted by molar mass. Activity calls are given as the source filed them. The calls are words filed in the database; no cut-off is given here.

What follows are compounds tested on Mycobacterium tuberculosis (assay: Antimycobacterial activity against Mycobacterium tuberculosis H37Rv ATCC 27294 after 7 days by Alamar blue assay). Details: H37Rv ATCC 27294, 168 h.
Format: functional

Compound | MIC [mg/L]
CC(C)CC(=O)N1CCc2cc(CNC(=O)c3cc([N+](=O)[O-])cc([N+](=O)[O-])c3)ccc2C1 | 0.204 (≈ 0.463 µM)
CO[C@H]1/C=C/O[C@@]2(C)Oc3c(C)c(O)c4c(O)c(c(/C=N/N5CCN(C)CC5)c(O)c4c3C2=O)NC(=O)/C(C)=C\C=C\[C@H](C)[C@H](O)[C@@H](C)[C@@H](O)[C@@H](C)[C@H](OC(C)=O)[C@@H]1C [RIFAMPIN] | 0.095 (≈ 0.115 µM)
O=C(NCc1ccc2c(c1)CCN(Cc1cc(C(F)(F)F)cc(C(F)(F)F)c1)C2)c1cc([N+](=O)[O-])cc([N+](=O)[O-])c1 | 1.9 (≈ 3.26 µM)
O=C(NCc1ccc2c(c1)CN(c1ccc(F)cc1)C2)c1cc([N+](=O)[O-])cc([N+](=O)[O-])c1 | 0.026 (≈ 0.0596 µM)
O=C(NCc1ccc2c(c1)CN(Cc1ccc(F)cc1)C2)c1cc([N+](=O)[O-])cc([N+](=O)[O-])c1 | 0.028 (≈ 0.0622 µM)
O=C(NCc1ccc2c(c1)CN(C(=O)c1ccccc1)C2)c1cc([N+](=O)[O-])cc([N+](=O)[O-])c1 | 1.45 (≈ 3.25 µM)
O=C(NCc1ccc2c(c1)CCN(C(=O)c1ccccc1)C2)c1cc([N+](=O)[O-])cc([N+](=O)[O-])c1 | 0.974 (≈ 2.12 µM)
CC(=O)CCN1CCc2cc(CNC(=O)c3cc([N+](=O)[O-])cc([N+](=O)[O-])c3)ccc2C1 | 22.7 (≈ 53.3 µM)
CCOC(=O)CN1CCc2cc(CNC(=O)c3cc([N+](=O)[O-])cc([N+](=O)[O-])c3)ccc2C1 | 0.243 (≈ 0.549 µM)
O=C(NCc1ccc2c(c1)CCN(c1ccc(C(F)(F)F)cc1)C2)c1cc([N+](=O)[O-])cc([N+](=O)[O-])c1 | 0.079 (≈ 0.158 µM)
NNC(=O)c1ccncc1 [ISONIAZID] | 0.039 (≈ 0.284 µM)
O=C(NCc1ccc2c(c1)CCN(C(=O)C1CCCCC1)C2)c1cc([N+](=O)[O-])cc([N+](=O)[O-])c1 | 0.5 (≈ 1.07 µM)
O=C(NCc1ccc2c(c1)CCN(Cc1ccc(Cl)cc1)C2)c1cc([N+](=O)[O-])cc([N+](=O)[O-])c1 | 0.056 (≈ 0.116 µM)
O=C(NCc1ccc2c(c1)CCN(c1ccc(F)cc1)C2)c1cc([N+](=O)[O-])cc([N+](=O)[O-])c1 | 0.076 (≈ 0.169 µM)
O=C(CN1CCc2cc(CNC(=O)c3cc([N+](=O)[O-])cc([N+](=O)[O-])c3)ccc2C1)OCc1ccccc1 | 7.55 (≈ 15 µM)
O=C(NCc1ccc2c(c1)CCN(Cc1ccc(Br)cc1)C2)c1cc([N+](=O)[O-])cc([N+](=O)[O-])c1 | 0.108 (≈ 0.206 µM)
O=C(NCc1ccc2c(c1)CNC2)c1cc([N+](=O)[O-])cc([N+](=O)[O-])c1 | < 0.016
O=C(NCc1ccc2c(c1)CN(C(=O)c1ccc(F)cc1)C2)c1cc([N+](=O)[O-])cc([N+](=O)[O-])c1 | 0.926 (≈ 1.99 µM)
O=C(NCc1ccc2c(c1)CCN(Cc1ccc(F)cc1)C2)c1cc([N+](=O)[O-])cc([N+](=O)[O-])c1 | 0.122 (≈ 0.263 µM)
O=c1nc(N2CCN(CC3CCCCC3)CC2)sc2c([N+](=O)[O-])cc(C(F)(F)F)cc12 [MACOZINONE] | < 0.016
O=C(NCc1ccc2c(c1)CN(Cc1ccc(C(F)(F)F)cc1)C2)c1cc([N+](=O)[O-])cc([N+](=O)[O-])c1 | < 0.016

Compound | MIC [mg/L]
O=C(NCc1ccc2c(c1)CCN(C(=O)c1ccc(F)cc1)C2)c1cc([N+](=O)[O-])cc([N+](=O)[O-])c1 | 0.424 (≈ 0.886 µM)
COc1ccc(CN2Cc3ccc(CNC(=O)c4cc([N+](=O)[O-])cc([N+](=O)[O-])c4)cc3C2)cc1 | 0.03 (≈ 0.0649 µM)
O=C(NCc1ccc2c(c1)CN(c1ccc(C(F)(F)F)cc1)C2)c1cc([N+](=O)[O-])cc([N+](=O)[O-])c1 | 0.098 (≈ 0.201 µM)
O=C(NCc1ccc2c(c1)CN(Cc1ccc(OC(F)(F)F)cc1)C2)c1cc([N+](=O)[O-])cc([N+](=O)[O-])c1 | 0.016 (≈ 0.031 µM)
O=C(NCc1ccc2c(c1)CCN(C(=O)CC1CCCCC1)C2)c1cc([N+](=O)[O-])cc([N+](=O)[O-])c1 | 0.978 (≈ 2.04 µM)
CN1CCc2cc(CNC(=O)c3cc([N+](=O)[O-])cc([N+](=O)[O-])c3)ccc2C1 | 11.4 (≈ 30.9 µM)
O=C(NCc1ccc2c(c1)CCN(CC1CCCCC1)C2)c1cc([N+](=O)[O-])cc([N+](=O)[O-])c1 | 0.226 (≈ 0.499 µM)
CC(C)(C)C(=O)N1Cc2ccc(CNC(=O)c3cc([N+](=O)[O-])cc([N+](=O)[O-])c3)cc2C1 | 0.489 (≈ 1.15 µM)
O=C(NCc1ccc2c(c1)CCN(Cc1ccc(OC(F)(F)F)cc1)C2)c1cc([N+](=O)[O-])cc([N+](=O)[O-])c1 | 0.241 (≈ 0.454 µM)
COc1ccc(C(=O)N2Cc3ccc(CNC(=O)c4cc([N+](=O)[O-])cc([N+](=O)[O-])c4)cc3C2)cc1 | > 32
O=C(NCc1ccc2c(c1)CN(C(=O)C1CCCCC1)C2)c1cc([N+](=O)[O-])cc([N+](=O)[O-])c1 | 0.808 (≈ 1.79 µM)
O=C(NCc1ccc2c(c1)CCN(Cc1cccc(F)c1)C2)c1cc([N+](=O)[O-])cc([N+](=O)[O-])c1 | 0.056 (≈ 0.121 µM)
CCC(C)C(=O)N1CCc2cc(CNC(=O)c3cc([N+](=O)[O-])cc([N+](=O)[O-])c3)ccc2C1 (stereo not drawn) | 0.468 (≈ 1.06 µM)
CCN(CC)C(=O)CN1CCc2cc(CNC(=O)c3cc([N+](=O)[O-])cc([N+](=O)[O-])c3)ccc2C1 | 15.3 (≈ 32.7 µM)
O=C(NCc1ccc2c(c1)CCN(c1ccc(OC(F)(F)F)cc1)C2)c1cc([N+](=O)[O-])cc([N+](=O)[O-])c1 | 0.241 (≈ 0.467 µM)
COc1ccc(C(=O)N2CCc3cc(CNC(=O)c4cc([N+](=O)[O-])cc([N+](=O)[O-])c4)ccc3C2)cc1 | 1.15 (≈ 2.34 µM)
CC(C)(C)C(=O)N1CCc2cc(CNC(=O)c3cc([N+](=O)[O-])cc([N+](=O)[O-])c3)ccc2C1 | 0.447 (≈ 1.01 µM)
CC(=O)CN1CCc2cc(CNC(=O)c3cc([N+](=O)[O-])cc([N+](=O)[O-])c3)ccc2C1 | 3.12 (≈ 7.56 µM)
O=C(NCc1ccc2c(c1)CN(C(=O)c1ccc(OC(F)(F)F)cc1)C2)c1cc([N+](=O)[O-])cc([N+](=O)[O-])c1 | 0.309 (≈ 0.583 µM)
O=C(CN1CCc2cc(CNC(=O)c3cc([N+](=O)[O-])cc([N+](=O)[O-])c3)ccc2C1)NCc1ccccc1 | 3.96 (≈ 7.86 µM)
CC(C)(C)OC(=O)CN1CCc2cc(CNC(=O)c3cc([N+](=O)[O-])cc([N+](=O)[O-])c3)ccc2C1 | 3.81 (≈ 8.1 µM)

These compounds were tested on Mycobacterium tuberculosis (assay: Antimycobacterial activity against Mycobacterium tuberculosis H37Rv ATCC 27294 up to 10 ug/ml after 7 days by Alamar blue assay). Details: not given.
Format: functional, organism-based

Compound | Activity
O=C(NCc1ccc2c(c1)CNC2)c1cc([N+](=O)[O-])cc([N+](=O)[O-])c1 | inactive
